Data published in US9180163B2, “Parstatin peptides” (priority 2009, dated 2015).
Where two headings read alike, the source gives them in different places.

Assays:
[1] = system: retinal neovascularization in C57BL/6 mice; type: in vivo; conditions: 5 μg intravitreal P12 and P15; P17; vs vehicle (PBS or DMSO)
Description: Parstatin (1-41), hydrophobic parstatin (1-26) fragment and hydrophilic parstatin (24-41) fragment were used in an in vivo mouse model of retinal neovascularization. In particular, oxygen-induced retinopathy was used to generate retinal neovascularization as a preclinical disease model for retinopathy of prematurity and other retinal neovascular diseases such as diabetic retinopathy. In this model, exposing newborn mice to hyperoxia prompts regression or delay of retinal vascular development, followed by abnormal angiogenesis after their return to normal oxygen levels. Mainly, this model mirrors the events that occur during retinopathy of prematurity, when infants are removed from oxygen-rich incubators, a condition involving pathological neovascularization that can affect premature infants and result in permanent visual loss. In recent years, the use of this model has been extended to the general study of ischemic vasculopathies, such us diabetic retinopathy, and related antiangiogenic interventions, and it is now used extensively in both basic and applied research environments.
Pathogen-free C57BL/6 mice were treated in accordance with the Association for Research in Vision and Ophthalmology Statement for the Use of Animals in Ophthalmic and Vision Research and the guidelines of the Animal Care and Use Committee at local University Medical School. Litters of 7-day old (P7) mice were exposed to an atmosphere of 75% oxygen in an airtight incubator for 5 days (P12), after which they were returned to room air for 5 days (P17). For quantification of oxygen-induced retinal neovascularization, mice on P17 were given an intraocular injection of 1 μl of rat anti-mouse platelet endothelial cell adhesion molecule-1 (PECAM-1) antibody (Pharmingen, San Jose, Calif.) under a dissecting microscope with Harvard pump microinjection apparatus. Mice were euthanized 12 hours after injection and eyes were fixed in PBS-buffered formalin for 5 hours. […] Retinal flat mounts were prepared and assessed with fluorescence microscope using imaging software. […]

[2] = system: VEGF-induced retinal leukostasis in C57BL/6J mice; test: VEGF-induced retinal leukostasis model; type: in vivo, mouse; conditions: for reduction of firmly adhering leukocytes vs VEGF-treated controls: 5 μg co-injected with VEGF; for firmly adhering leukocytes: 5 μg co-injected with VEGF (10 μM), 6 h
Procedure: Inflammatory leukocyte accumulation is a common feature of major ocular diseases. […] VEGF, which is a potent chemoattractant for leukocytes, is increased in ischemic retina and is necessary for retinal neovascularization to occur. Parstatin (1-41), hydrophobic parstatin (1-26) fragment and hydrophilic parstatin (24-41) fragment were used in an in vivo mice model of VEGF-induced retinal leukostasis.
C57BL/6J (4-5 week-old) mice were anesthetized with ketamine hydrochloride (100 mg/kg body weight) and xylazine (4 mg/Kg body weight) and the pupils were dilated with 1% tropicamide. Intravitreal injections of 1 μl solutions of 10 μM VEGF, which is the optimal concentration for promoting leukostasis, or parstatin (1-41) or parstatin (24-41) in phosphate buffered saline (PBS) or PBS alone or the combinations were administered. Also, intravitreal injections of 1 μl solutions of parstatin (1-26) in dimethyl sulphoxide (DMSO) or DMSO alone were administered to assess leukostasis. Six hours after intravitreal injections, which was the optimal time determined for VEGF-induced leukostasis, animals were perfused with PBS to remove intravascular content, including nonadherent leukocytes. Perfusion with FITC-conjugated Concanavalin A (40 μg/ml in PBS, Vector Labs, Burlingame, Calif.) was then performed to label adherent leukocytes and vascular endothelial cells, followed by removal of residual unbound lectin with PBS perfusion. Retinal flat mounts were prepared and examined with the Axioskop microscope and images were digitized. The total numbers of leukocytes adhering to the retinal vessels were counted at 200× by the same investigator, with the investigator being masked as to the nature of the specimen.

[3] = system: nitric oxide content of myocardium; test: myocardial nitrite and nitrate content after ischemia-reperfusion; type: in vivo, rat; conditions: 1 μg/kg pre-ischemic
Procedure: To determine whether parstatin (1-26) protects the heart by a mechanism involving nitric oxide synthase (NOS), rats were treated with L-NMA (15 μg/Kg, a general NOS inhibitor), with or without parstatin (1-26) (1 μg/Kg) prior to ischemia. […] The role of parstatin (1-26) in endothelial NOS activation was further evaluated by measuring the phosphorylation of Ser1177. In these experiments, the left ventricular free wall tissue was homogenized and immunoblot analysis was performed using an anti-phospho-endothelial NOS (Ser1177) primary antibody (Cell Signaling Technology, Danvers, Mass.). […] In addition, nitrite and nitrate content, a marker of endothelial NOS activity, was measured from both ischemic and non-ischemic tissues. Ischemia and 120 min reperfusion caused an increase in the production of NO in the ischemic tissue from the control group when compared to the sham group (FIG. 25D). […] Pre-ischemic treatment with parstatin (1-26) further increased NO content in the ischemic tissue by an additional 1.4-fold over control values and 2.0-fold over sham treated values.

[4] = system: myocardial ischemia-reperfusion injury in Sprague Dawley rats; conditions: for reduction in infarct size: 1 μg/Kg IV bolus
Procedure: Parstatin (1-41) was used in an in vivo rat model of cardiac ischemia and reperfusion, and in an in vitro isolated rat heart model of ischemia-reperfusion injury.
For in vivo infarct size studies, rats were anesthetized with pentobarbital sodium (50 mg/Kg) and heparin (1000 IU/Kg) and underwent 30 min of regional ischemia followed by 120 min of reperfusion. Parstatin (1-41) was administered-intravenously over 1 min starting 15 min prior to ischemia, or 15 min after the onset of ischemia, or 10 seconds after the onset of reperfusion in separate series of experiments (n=6/group).
To induce ischemia, ligature was positioned around the left main coronary artery and threaded through a plastic snare to permit reversible occlusion of the coronary artery. Coronary occlusion was induced by clamping the snare onto the heart and reperfusion was achieved by releasing the snare. At the end of reperfusion, the coronary artery was re-occluded and the risk zone was delineated by perfusion of 0.5% Evans' blue into the aortic cannula. Hearts were sectioned and incubated in 1% triphenyltetrazolium chloride in phosphate buffer for 15 min to define white necrotic tissue when fixed in 10% formalin for 24 h. Area at risk (AAR) and infarct-to-risk rations were determined by computerized planimetry using J-Image v.i.6 software (NIH, Bethesda, Mass.).
For in vivo infarct size/ischemia-reperfusion studies, rats were anesthetized with pentobarbital sodium (50 mg/Kg) and heparin (1000 IU/Kg) and underwent 30 min of regional ischemia followed by 120 min of reperfusion. Human hydrophobic parstatin (1-26) fragment was administered intravenously over 1 min at one of three time points: 1) starting 15 min prior to ischemia, 2) 15 min after the onset of ischemia, or 3) 10 seconds after the onset of reperfusion in a separate series of experiments (n=6/group).
Ischemia was induced by placement of a ligature around the left main coronary artery which was threaded through a plastic snare to permit reversible occlusion of the coronary artery. Coronary occlusion was induced by clamping the snare onto the heart and reperfusion was achieved by releasing the snare. At the end of reperfusion, the coronary artery was re-occluded and the risk zone was delineated by perfusion 0.5% Evans' blue into the aortic cannula.
Hearts were sectioned and incubated in 1% triphenyltetrazolium chloride in phosphate buffer for 15 min to define white necrotic tissue when fixed in 10% formalin for 24 h. Area at risk (AAR) and infarct-to-risk rations were determined by computerized planimetry using J-Image v.i.6 software (NIH, Bethesda, Mass.). The principal endpoint of these studies was infarct size expressed as a percentage of the area at risk.

[5] = system: renal ischemia-reperfusion injury in Wistar rats
Procedure: Pathogen-free male Wistar rats weighting 250-300 g were used and treated in compliance with the “Guide for the Care and Use of Laboratory Animals” published by the US National Institutes of Health (NIH Publication NO. 85-23, revised 1996).
Rats were anesthetized with intramuscular injection of ketamine (25 mg/Kg) and xylazine hydrochloride (10 mg/Kg). After a midline laparotomy, the renal pedicles were identified and bilaterally occluded for a period of 45 min using nontraumatic microaneurysm clamps. The presence of ischemia was visually confirmed by observing blanching of the kidneys. Sham-operated rats were subjected to identical surgical procedures without causing renal ischemia by application of microaneurysm clamps. At the end of ischemia period the clamps were removed and renal reperfusion was established. All rats were killed 4 hours after the initiation of reperfusion.
Urine was collected during reperfusion, and at the end of the experiments blood samples were taken and analyzed for biochemical markers of renal impairment. Serum creatinine levels were measured as an indicator of glomerular function. Urine concentrations of Na^+ were determined and used in conjunction with serum Na^+ concentrations to estimate FENa which was used as a sensitive indicator of tubular function.
For histological assessment of renal ischemia-reperfusion injury, the rat kidneys were removed 4 hours after reperfusion, fixed in 10% formalin, embedded in paraffin, sectioned (5-μm thicknesses), and stained with haematoxylin and eosin. Tubular injury was identified by the presence of any of flattened tubular cells, loss of brush border, and cast formation. Ten high-powered fields (hpf's; ×400 magnification) from the outer medulla and corticomedullary junction were examined from each animal to determine the percentage of tubules showing evidence of injury and scored according to the following scale: 0, no injury; 1, less than 10%; 2, 10% to 25%; 3, 26% to 75%; 4, greater than 75%. The 10 scores were averaged to give the tubular injury score for each specimen.

[6] = system: HUVEC cells; test: MTT cell proliferation assay; type: cell-based, human; conditions: 10 μM
Procedure: Cell proliferation was evaluated using a 3-(4,5-[…])-2,5-diphenyltetrazolium bromide (MTT, Sigma-Aldrich, St. Louis, Mo.) assay. Endothelial cells (10,000/well) were seeded in 24-well tissue culture plates and incubated with growth medium for 24 h. Cells were then treated with the vehicle or the indicated peptides in medium containing 5% FBS for 1 to 3 days. After 24, 48, or 72 hours, MTT solution (5 mg/ml) was added to each well and incubated for 3 h at 37° C. The blue formazan crystals were solubilized by addition of DMSO and absorbance at 450 nm was recorded using a 96-well plate reader.

[7] = parstatin (1-26) IV 10 seconds after initiation of reperfusion

## MGPRRLLLVAACFSLCGPLLSARTRA (listed as Homo sapiens) [parstatin (1-26)]
[1]
  inhibition of retinal neovascularization: 65%
[2]
  reduction of firmly adhering leukocytes vs VEGF-treated controls: 59%
  firmly adhering leukocytes: 74±32 cells/retina
[3]
  NO levels in non-ischemic tissue compared to control and sham rats: No differences
[3]; 120 min reperfusion
  NO content in the ischemic tissue over control values: 1.4 fold
  NO content in the ischemic tissue over sham treated values: 2.0 fold
[4]; 10 seconds after initiation of reperfusion
  reduction in infarct size: 62%
[4]; 15 min after the onset of ischemia
  reduction in infarct size: 73%
[4]; 1 μg/Kg, L-NMA 15 μg/Kg
  infarct sparing effect with L-NMA: abolished
[4]; 1 μg/Kg, pertussis toxin 25 μg/Kg 48 hours prior
  infarct size in the presence of pertussis toxin: unable to reduce infarct size
[4]; 1 μg/Kg, wortmannin 15 μg/Kg
  cardioprotective effects with wortmannin: abrogated
[4]; 1 μg/kg, ODQ 1 mg/kg
  reduction in infarct size with ODQ: abolished
[4]; 10 μg/Kg IV 15 min prior to ischemia
  reduction in infarct size compared with control: 78%
[4]; 10 μg/Kg IV 15 min prior to ischemia, 30 min ischemia, 120 min reperfusion
  infarct size: 13±1 % of the area at risk
[4]; 5-HD 10 mg/Kg
  cardioprotective effects with 5-HD: blocked
[4]; HMR 1098 6 mg/kg
  cardioprotective effects with HMR 1098: blocked
[4]; atractyloside 3 mg/Kg
  cardioprotection with atractyloside: partial blockage
[4]; glibenclamide 3 mg/kg
  cardioprotective effect with glibenclamide: completely diminished
[4]; rat, in vivo
  baseline hemodynamics (heart rate, blood pressures) between groups: no significant differences
[5]; 10 μg/Kg
  histological scoring of renal injury: significantly reduced
[5]; 10 μg/Kg IV pre-ischemic
  reduction of FENa: 66%
  reduction of serum creatinine: 27%
[5]; [7]
  reduction of FENa: 72%
  reduction of serum creatinine: 30%

## TRARRPESKATNATLDPR (listed as Homo sapiens) [parstatin (24-41), 24-41 (18 amino acids) of human parstatin, hydrophilic fragment]
[6]
  HUVEC cell proliferation: without effect
[1]
  inhibition of retinal neovascularization: 69%
[2]
  reduction of firmly adhering leukocytes vs VEGF-treated controls: 55%
  firmly adhering leukocytes: 81±21 cells/retina
